# Measurements: patent publication US20230028918A1, “COMPOSITIONS COMPRISING PKC-BETA INHIBITORS AND PROCESSES FOR THE PREPARATION THEREOF” (priority 2019, published 2023)
# Read-outs that look alike come from different tables or passages of the source.
# How the values were obtained:
# [1] = molecular target: Human PKC delta (Homo sapiens, UniProt Q05655); assay: PKC inhibition, in vitro enzyme assay; type: biochemical
# Text: (§1) The methods for these determinations have been described (Grant, et al. 2010, Eur. J. Pharmacol. 627:16-25).
# [2] = system: pSHP2 (PKCβ cell assay); assay: pSHP2 (PKCβ cell assay); type: cell-based
# Text: as §1
# [3] = system: Interleukin-8 release; assay: Interleukin-8 release; type: cell-based
# Text: as §1
# [4] = system: PKCβ signaling; assay: PKCβ signaling assay: SERBP1 phosphorylation after PMA + ionomycin in whole blood of CLL/SLL patients dosed with Compound A; type: in vivo, human; details: for inhibition at 100 mg / inhibition at 200 mg / inhibition at 250 mg: Homo sapiens
# Procedure: A phosphor-flow assay was employed to measure the phosphorylation of SERBP1, a novel substrate for PKCP. Whole blood samples were taken at the appropriate time points from CLL patients receiving compound A as part of a phase 1 study, and were shipped overnight and processed for testing the next day. Whole blood was stimulated with PMA+ionomycin, cells were permeabilized, and the amount of SERBP1 phophorylation was measured. The reported data are the CD19+pSERBP1+ population, normalized to each patient's own unstimulated sample at the corresponding time point.
# To monitor PKCβ mediated signaling, a biomarker marker assay was developed using Alexa-647 label anti-phospho_SERBP1 antibody.
# Briefly, whole blood specimens from each patient was drawn into sodium citrate collection tubes. Samples will be shipped overnight to the flow cytometry lab for processing and testing
# Duplicates will be prepared for each treatment condition per donor. The following conditions will be prepared for each donor, unstimulated and PMA and ionomycin stimulated samples. Whole blood 200 μL will be placed in appropriate size cryovial. The samples will be treated as described in Table 1 and incubated at 37° C., 5.0% CO2 for 25-30 minutes.
# Following stimulation 2 mL 1×BD FACSLyse will be added, then vortexed and incubated for 12-15 minutes in the dark at ART. Samples will be stored immediately at −80° C. until testing.
# Samples from each subject will be processed in batches with all timepoints and include a normal human control unstimulated and stimulated sample. All samples will be processed and collected in singlet.
# Frozen samples will be thawed by placing samples in a 37° C. water or bead bath. Sample will be transferred to tubes and centrifuged at 1700 rpm, for 5 minutes at ambient room temperature (ART) with Brake on. Samples will be decanted and washed twice with 1 mL Stain Buffer (FBS). Samples will be resuspended in 200 μL Stain Buffer (FBS) and […] appropriate volume of fluorochrome-conjugated monoclonal surface antibodies will be added (Table 2).
# Samples will be hand mixed and incubated for 15-20 minutes in the dark at ART. Samples will be washed twice with 1 mL Stain Buffer (FBS). After wash, 200 μL Fix/Perm buffer will be added to each sample, then vortexed and incubated for 30-35 minutes in the dark at 2-8° C. Samples will be washed twice with 1 ml 1× Permeabilization Buffer (Perm Buffer). 100 μL of 1× Perm Buffer and appropriate volume of pSERBP1 AF647 will be added (documented in the study paperwork) and incubated for 30-35 minutes in the dark at 2-8° C. Samples will be washed twice with 1 mL 1× Perm Buffer. Samples will be resuspended in 125 μL 1× Stain Buffer FBS for acquisition on the flow cytometer.
# Flow cytometric data acquisition will be performed using the BD FACSCantoII™ which evaluates two scatter parameters and up to eight color fluorescence channels. Data will be acquired using BD FACSDiva™ software (version 6.1.3 or higher). The samples will be acquired to distinguish the cells of interest from other cell types in the peripheral blood by electronic gating on the basis of CD45 versus side scatter. The instrument will be set to collect 50,000 CD45+ lymphocyte events. Dual combination cytograms and/or histograms will be generated to illustrate the LL (−/−), LR (+/−), UL (−/+), UR (+/+) and/or interval gate for the fraction of the cells. The Flow Cytograms will be printed and maintained with study binder.
# The Median Fluorescence Intensity for the AF647 channel will be reported for each population (CD45, CD3, CD19 and CD20). Relative % data will also be reported for CD3+, CD3−CD19+, CD3−CD20+, CD3−CD19+HLADR+CD86+, and CD3−CD20+HLADR+CD86+. Data will be analyzed by Microsoft Excel to obtain descriptive statistics; i.e. Mean, SD, and CV %.
# The flow cytometry data are analyzed to determine the amount of SERBP1 phosphorylation following PMA/ionomycin stimulation.
# [5] = Compound A plasma concentration and food effect in patients; type: in vivo, human; details: for Compound A Plasma Concentration: Day 8 pre-dose trough (Cmin); for concentration at 3 h post-dose on Day 8: human, plasma, Day 8, 3 h post-dose peak
# [6] = Clinical tolerability; type: in vivo; details: human, plasma, oral; clinical trial, compound taken with food; read-out: Plasma Cmax that is well-tolerated
# [7] = system: primary CLL cells; assay: Immunoblot of BCR signaling in primary CLL cells; type: cell-based; details: versus vehicle control
# [8] = system: primary CLL cells; assay: CCL3 and CCL4 secretion by primary CLL cells (ELISA); type: cell-based; details: 5 μM, presence or absence of anti-IgM ligation, 24 hrs
# [9] = system: primary CLL cells with WT and C481S BTK; assay: CD86 and HLA-DR expression on CpG-stimulated primary CLL cells with WT and C481S BTK (flow cytometry); type: cell-based; details: up to 10 μM, CpG stimulation, 48 hrs, baseline and post-relapse samples from ibrutinib treated patients
# Procedure: Cryopreserved baseline samples and post-relapse samples from ibrutinib treated patients (n=2) were thawed and treated with up to 10 μM compound A and stimulated with 3.2 M CpG. CD86 (FIG. 3A) and HLA-DR (FIG. 3B) expression was measured by flow cytometry at 48 hrs. Mean fluorescence intensity (MFI) is reported. Error bars represent standard deviation.
# [10] = physchem; details: pH 7
# Sequence of Human PKC delta (Q05655 whole entry): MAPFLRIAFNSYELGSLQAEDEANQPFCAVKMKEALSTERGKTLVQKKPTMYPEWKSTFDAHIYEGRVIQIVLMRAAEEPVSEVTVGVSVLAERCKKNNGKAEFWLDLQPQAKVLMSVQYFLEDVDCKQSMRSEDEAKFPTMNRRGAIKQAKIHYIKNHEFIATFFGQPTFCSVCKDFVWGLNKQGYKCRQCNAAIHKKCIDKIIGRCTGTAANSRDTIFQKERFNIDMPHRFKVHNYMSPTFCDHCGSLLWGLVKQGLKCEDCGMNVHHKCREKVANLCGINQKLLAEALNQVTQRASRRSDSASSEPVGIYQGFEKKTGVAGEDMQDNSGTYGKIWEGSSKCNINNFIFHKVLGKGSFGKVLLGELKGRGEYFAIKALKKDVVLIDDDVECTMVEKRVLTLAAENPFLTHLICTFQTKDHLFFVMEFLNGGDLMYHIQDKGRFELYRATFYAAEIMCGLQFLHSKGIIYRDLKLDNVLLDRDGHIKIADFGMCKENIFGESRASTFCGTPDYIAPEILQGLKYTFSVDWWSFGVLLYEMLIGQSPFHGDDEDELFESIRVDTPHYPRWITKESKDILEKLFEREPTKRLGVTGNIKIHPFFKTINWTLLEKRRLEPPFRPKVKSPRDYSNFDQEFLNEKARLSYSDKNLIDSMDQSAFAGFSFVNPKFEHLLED
structure (smiles),measurement,setting,value
"Cc1ncc(F)c(Nc2n[nH]c3c2CN(C(=O)N2C[C@@H](C)N(CC4CCOCC4)C[C@@H]2C)C3(C)C)n1 [Compound A, 5-{[(2S,5R)-2,5-dimethyl-4-(tetrahydro-2H-pyran-4-ylmethyl)piperazin-1-yl]carbonyl}-N-(5-fluoro-2-methylpyrimidin-4-yl)-6,6-dimethyl-1,4,5,6-tetrahydropyrrolo[3,4-c]pyrazol-3-amine]",Inhibition of PKC delta,[1],does not significantly inhibit
same,IC50,[2],0.0098 µM
same,IC50,[3],0.039 µM
same,Mean Stimulation at Day 8 3 h Post-Dose Peak,"[4]; 100 mg BID, N = 1",96%
same,Mean Stimulation at Day 8 Pre-Dose Trough (Cmin),"[4]; 100 mg BID, N = 1",109%
same,Mean Stimulation at Day 8 3 h Post-Dose Peak,"[4]; 200 mg BID, N = 3",100%
same,Mean Stimulation at Day 8 Pre-Dose Trough (Cmin),"[4]; 200 mg BID, N = 3",121%
same,Mean Stimulation at Day 8 3 h Post-Dose Peak,"[4]; 250 mg BID, N = 3",102%
same,Mean Stimulation at Day 8 Pre-Dose Trough (Cmin),"[4]; 250 mg BID, N = 3",104%
same,Phosphorylation of SERBP1 (CD19+pSERBP1+ population),"[4]; CLL patients in phase 1 study, PMA + ionomycin stimulated whole blood",inhibits phosphorylation of SERBP1 in vivo
same,inhibition at 100 mg,"[4]; 192 h, 100 mg BID, Day 8 pre-dose, read-out: % Inhibition of Stimulation at Trough (Cmin)",51%
same,inhibition at 200 mg,"[4]; 192 h, 200 mg BID, Day 8 pre-dose, read-out: % Inhibition of Stimulation at Trough (Cmin)",70%
same,inhibition at 250 mg,"[4]; 192 h, 250 mg BID, Day 8 pre-dose, read-out: % Inhibition of Stimulation at Trough (Cmin)",97%
same,inhibition at 100 mg,"[4]; 100 mg BID, Day 8, 3 h post-dose, read-out: % Inhibition of Stimulation at Peak",122%
same,inhibition at 200 mg,"[4]; 200 mg BID, Day 8, 3 h post-dose, read-out: % Inhibition of Stimulation at Peak",102%
same,inhibition at 250 mg,"[4]; 250 mg BID, Day 8, 3 h post-dose, read-out: % Inhibition of Stimulation at Peak",98%
same,Plasma concentration that completely suppresses PKCβ signaling,[4]; whole blood samples from patients with CLL or SLL,500 to 600 ng/mL
same,Compound A Plasma Concentration,[5]; 100 mg BID,186 ng/mL
same,Compound A Plasma Concentration,[5]; 200 mg BID,295 ng/mL
same,Compound A Plasma Concentration,[5]; 250 mg BID,542 ng/mL
same,Effect of food on the PK profile,[5]; clinical trial data,does not have a significant effect
same,concentration at 3 h post-dose on Day 8,[5]; 100 mg BID,587 ng/mL
same,concentration at 3 h post-dose on Day 8,[5]; 200 mg BID,837 ng/mL
same,concentration at 3 h post-dose on Day 8,[5]; 250 mg BID,1310 ng/mL
same,Effect of food on the pharmacokinetics,[5]; single dose of the IR formulations,no significant effect
same,Cmax,[6],~2000 ng/mL
same,"Phosphorylation of PKCβ and downstream targets (pPKCβ, pERK, pIκBα, pGSK3β)",[7],decreased phosphorylation
same,CCL3 and CCL4 secretion,[8],inhibition of pro-inflammatory cytokine expression
same,CD86 and HLA-DR expression (MFI),[9],reduces activation
same,solubility at 24 h,[10],1040 µg/mL
